The text below walks through data of patent US6348445B1, “Biologically active peptides with reduced toxicity in animals and a method for preparing same” (priority 1992, dated 2002).

Common to all, as to format: cell-based
For one assay, the system named is S. aureus ATCC 29213. The conditions noted are these: ATCC 29213.
Assay [1] has as its system E. coli ATCC strain 25922. The experiment in a line: Minimal Inhibitory Concentration, microtiter broth dilution. The following applies: ATCC strain 25922. The procedure, abridged: (§1)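 Peptides serially diluted 1:2 to final 0.25–256 μg/ml in Mueller Hinton broth, inoculated with 1-5×10^5 CFUs/ml from mid-log culture. Incubated 16-20 hours at 37° C. MIC = lowest peptide concentration giving a clear well.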
(In broth dilution the organism is exposed to a series of concentrations in liquid medium.)

In assay [2] the test system is K-562 human chronic myelogenous leukemia cells. The conditions noted are these: 24 h. As to the method: (§2) Human lung carcinoma cells, A-549 (ATCC), and human breast carcinoma cells, MDA-435 (from Sandoz), were grown in Ham's F12K medium (GIBCO-BRL) supplemented with […] fetal bovine serum. Human chronic myelogenous leukemia cells, K-562 (ATCC), were maintained in RPMI 1640 medium (GIBCO-BRL) supplemented with 10% fetal bovine serum. Human melanoma cell line, WM 1617 (from the Wistar Institute), was maintained in 2% Tumor media.
(§3) Cytotoxicity assays were performed on the cell lines described above using CytoLite (Packard Instrument Company) following the manufacture's instruction. Briefly, 2×10^4cells/well were seeded into black, 96-well ViewPlates (Packard Instrument Company) in 100 μl/well growth medium. Ser. dilutions of Magainin peptides were then added into the cells and the plates incubated for 24 hours in a humidified 5% CO2 atmosphere at 37° C. Following incubation, 25 μl/well of CytoLite activator solution was added followed by 125 μl/well of amplifier solution. Luminescence was measured on TopCount Microplate Scintillation and Luminescence counter (Packard Instrument Company) using a 1 second count time in SPC (single photon counting) mode at 25 ° C. All assays were performed in triplicate. The peptides tested in this assay were MSI-78(SEQ ID NO: 154 —NH2), MSI-1858(SEQ ID NO: 154 —NH2 Methane Sulfonate), MSI-344(SEQ ID NO: 154 —OH) and MSI-1857(SEQ ID NO: 154 —OH Methane Sulfonate). The results of these assays are shown in FIGS. 2-9 with the corresponding IC50 values in Table VIII. In all cases the activity of the methane sulfonated peptide was as good or better than the parent peptide as indicated by both the survival curves and the IC50 values.

Assay [3] concerns WM 1617 human melanoma cells. The following applies: 24 h. How it is done:
as §2, §3

The test system of assay [4] is MDA-435 human breast carcinoma cells. The following applies: 24 h. How it is done: as §2, §3
Assay [5] relates to A-549 human lung carcinoma cells. The conditions noted are these: 24 h. How it is done:
as §2, §3

Assay [6] relates to P. aeruginosa strain ATCC 27853. The conditions noted are these: ATCC 27853. In short, it runs like this:
as §1

Where no end group is shown, it is not given here.

What is called IC50 is the point on the concentration scale where inhibition reaches its midpoint. Higher therefore signals weaker potency.

As to GIGKFLKKAKKFGKAFVKILKK [MSI-78], the “MIC S. aureus ATCC 29213” value in the assay with S. aureus ATCC 29213 turned out to be 16 µg/mL. For the same sequence, in assay [1], the “MIC E. coli ATCC 25922” value is 32 µg/mL. Further, the IC50 is 9 µM in assay [2], 3 µM in assay [3], 4 µM in assay [4] and 3 µM in assay [5]. Besides, the “MIC P. aeruginosa ATCC 27853” value in assay [6] is 16 to 32 µg/mL.
